Measured values: patent publication US20220152144A1, “FOOD ADDITIVE INCLUDING MANNAN OLIGOSACCHARIDES TO ENHANCE ANIMAL PERFORMANCE AND METHOD OF USING THE SAME” (Vitech Bio-Chem Corporation, priority 2020, published 2022)

How the values were obtained:
[1] = Growth performance of broiler chicks fed supplemented diets (Example 1); format: in vivo, broiler chicks (Cobb500); conditions: dose 45 ppm
Experimental: Materials and Methods. Broiler chicks: A total of 960 1-day old broiler chicks (Name of breed: Cobb500™) (8 trt×6 rep×20 birds/pen) were randomly allocated to 8 treatment groups. Treatment groups: Treatment 1 was a corn/soybean meal diet (PC: 45 ppm avilamycin); Treatment 2 was a PC+50 g/T Fish hydrolysate+MOS (80:20 ratio); Treatment 3 was a PC+100 g/T Fish hydrolysate+MOS (80:20); and treatment 4 was PC+200 g/T Fish hydrolysate+MOS (80:20).
(§1) The trial was conducted for 42 days. Body weight gain, feed intake, and FCR was measured at 14, 28, and 42 days. Cecal levels of E. coli, Salmonella, and lactobacillus were evaluated at 21 days.
Measurements: Individual broiler weights and feed intake was collected in order to calculate body weight and body weight gain, feed intake, and gain-to-feed ratio by phase.
One-way ANOVA and Duncan's multiple range test was used to separate the means. There is no difference found between treatments. The overall mortality during the 42 days period is 3.65% and it is non-treatment specific.

E. coli = assay: Bacterial counts in cecal samples of broiler chicks: E. coli; format: in vivo; conditions: 21 days, dose 45 ppm
Experimental: as §1

Lactobacilli = assay: Bacterial counts in cecal samples of broiler chicks: Lactobacilli; format: in vivo; conditions: 21 days, dose 45 ppm
Experimental: as §1

SMILES: COC[C@H]1O[C@@H](OC2OC[C@@H]3O[C@]4(O[C@H]3[C@H]2OC(=O)C(C)C)O[C@H](C)[C@@](O)(C(C)=O)[C@@H]2OCO[C@H]24)[C@@H](OC)[C@@H](O)[C@@H]1O[C@@H]1O[C@H](C)[C@H](OC)[C@H](O[C@H]2C[C@@]3(C)OC4(C[C@@H](O)[C@H](O[C@H]5C[C@@H](O)[C@H](OC(=O)c6c(C)c(Cl)c(O)c(Cl)c6OC)[C@@H](C)O5)[C@@H](C)O4)O[C@@H]3[C@@H](C)O2)[C@H]1O (stereo partly shown) [Avilamycin, avilamycin]
- body weight (BW) ([1]; Day 0-14): 442 g
- body weight gain (BWG) ([1]; Day 0-14): 402 g
- feed intake (FI) ([1]; Day 0-14): 583 g
- food conversion ratio (FCR) ([1]; Day 0-14): 1.453
- body weight (BW) ([1]; Day 0-28): 1,550 g
- body weight gain (BWG) ([1]; Day 0-28): 1,510 g
- feed intake (FI) ([1]; Day 0-28): 2,212 g
- food conversion ratio (FCR) ([1]; Day 0-28): 1.472
- body weight (BW) ([1]; Day 14-28): 1,550 g
- body weight gain (BWG) ([1]; Day 14-28): 1,108 g
- feed intake (FI) ([1]; Day 14-28): 1,628 g
- food conversion ratio (FCR) ([1]; Day 14-28): 1.542
- body weight (BW) ([1]; d 28-42): 2,784 g
- body weight gain (BWG) ([1]; d 28-42): 1,235 g
- feed intake (FI) ([1]; d 28-42): 2,601 g
- food conversion ratio (FCR) ([1]; d 28-42): 2.123
- body weight (BW) ([1]; overall 0-42 days): 2,784 g
- body weight gain (BWG) ([1]; overall 0-42 days): 2,745 g
- feed intake (FI) ([1]; overall 0-42 days): 4,813 g
- food conversion ratio (FCR) ([1]; overall 0-42 days): 1.753
- E. coli Counts (E. coli): 7.29a Log10 CFU/g
- Lactobacilli Counts (Lactobacilli): 7.21 Log10 CFU/g
